Values of other authors, collected in paper PMC8161055, “Synthesis and α-Glucosidase Inhibition Activity of 2-[3-(Benzoyl/4-bromobenzoyl)-4-hydroxy-1,1-dioxido-2H-benzo[e][1,2]thiazin-2-yl]-N-arylacetamides: An In Silico and Biochemical Approach” (Molecules, 2021).

Tests used:
SARS-CoV-2 = tested on: SARS-CoV-2; set-up: method as in PMID 33160024; conditions: cited from earlier work
aldose-reductase = target: aldose-reductase; set-up: method as in PMID 22036211; conditions: cited from earlier work

SMILES	IC50 (SARS-CoV-2)	IC50 (aldose-reductase)
O=C(CN1C(C(=O)Nc2ccc(F)c(Cl)c2)=C(O)c2ccc(F)cc2S1(=O)=O)Nc1ccc(C(F)(F)F)cc1 [compound 4]	0.88 µM	–
O=C(O)C=C1CN(Cc2ccc(Br)cc2F)S(=O)(=O)c2ccccc21 [2-(2-(4-bromo-2-fluorobenzyl)-1,1-dioxido-2H-benzo[e][1,2]thiazin-4(3H)-ylidene)acetic acid]	–	0.11 µM
